Assay in all cases: NCI anticancer screen, dose series, 48 h
The subject of test [1] is A549 NSCLC.
For test [2], the system named is SF-539 CNS.
Test [3] relates to U251 CNS.
In test [4] the test system is 786-0 renal.
For test [5], the system named is TK-10 renal.
Test [6] has as its system A498 renal.
Test [7] relates to NCI-H522 lung.
For test [8], the system named is UACC-62 melanoma.
For test [9], the system named is LOX IMVI melanoma.
The subject of test [10] is MDA-MB-435.

Molecules are shown by their SMILES.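 Briefly, cells in 96-well plates were exposed to five compound concentrations for 48 h, and endpoints were estimated by linear interpolation. Here, GI50 denotes the concentration required for 50% inhibition of growth. TGI: total growth inhibition.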 Some results are limits rather than exact numbers.

Regarding `CC(OP(=O)(O)O)C(N)C(=O)O` (configuration not stated), the TGI in [1], in test [2], in test [3], in test [4], in test [5] and in [6] was over 100 µM in each case. Further, the TGI in test [7], in test [8], in test [9] and in [10] was over 100 µM in each case.
Consider `O=c1cc(-c2ccccc2)oc2c1ccc1[nH]c3ccccc3c(=O)c12`, for which the TGI in test [1], in [2], in test [3], in test [4], in [5] and in test [6] was over 100 µM throughout. Besides, the TGI in test [7] is over 100 µM; in test [8], over 100 µM; in test [9], 34.9 µM; in test [10], over 100 µM.
`O=c1cc(N2CCOCC2)n2c(ccc3ccccc32)n1`: the TGI in test [1], in [2], in test [3], in [4], in [5] and in test [6] was over 100 µM throughout. Also, the TGI in [7], in [8], in test [9] and in test [10] was over 100 µM in each case.
For the compound `Clc1ccc(-c2nn3c(COc4cccc(OCc5nnc6sc(-c7ccc(Cl)cc7)nn56)c4)nnc3s2)cc1`, the TGI in test [1] was 73.2 µM; in test [2] it was 49.5 µM; in [3] it was 61.3 µM; in [4], 59.9 µM; in test [5] it was over 100 µM; in test [6], 61.8 µM. Besides, the TGI is 55.3 µM in test [7], 77.1 µM in test [8], over 100 µM in test [9] and 41.7 µM in test [10].
As to `N/N=C(/N)SCCCCCCCCCCS/C(N)=N/N`, the TGI in test [1] is 50.3 µM; in test [2], over 100 µM; in [3], 51.4 µM; in test [4] it was over 100 µM; in test [5], over 100 µM; in test [6], 43.8 µM. In addition, the TGI is 65.6 µM in test [7], 47.1 µM in [8], 23.7 µM in test [9] and over 100 µM in test [10].
Turning to `CC/C=C/c1cc2c(cc1O)CCC1C2CC[C@@]2(C)C1CC[C@@H]2O` (some centres not stated), the TGI in [1] amounted to 20 µM; in test [2], 2.59 µM; in test [3], 15.7 µM; in [4] it was 13.8 µM; in test [5] it was 4.72 µM; in [6], 9.03 µM. For the same compound, the TGI in [7] was found to be 14.1 µM; in test [8], 7.91 µM; in test [9], 6.68 µM; in test [10] it was 1.12 µM. Further, the figures for the GI50 in [2] and in test [8] were 0.645 µM and 0.485 µM, respectively.
`CSc1nnc(SCc2nn3c(=O)cc(C)nc3s2)s1`: the TGI in test [1], in [2], in test [3], in test [4], in test [5] and in test [6] was over 100 µM each time. The TGI in test [7], in [8], in [9] and in test [10] was over 100 µM throughout.
Consider `O=C1C=CC2(O[C@H](C3CCCCC3)[C@@H](C3CCCCC3)O2)C(SC(=O)c2ccccc2)C1` (some centres not stated), for which the TGI in [1] was 45.8 µM; in test [2], 11.6 µM; in [3], 6.86 µM; in [4], 5.09 µM; in [5], 5.62 µM; in test [6], 18.4 µM. Moreover, the TGI in test [7] stood at 2.23 µM; in [8], 8.57 µM; in test [9], 5.92 µM; in test [10], 5.29 µM.
On to `Cc1cc(N2CCCCC2)nc2ccc(Cc3ccc4nc(N5CCCCC5)cc(C)c4c3)cc12`, for which the TGI in test [1], in test [2], in [3], in test [4], in [5] and in [6] was over 100 µM throughout. The TGI in test [7], in [8], in test [9] and in [10] was over 100 µM each time.
For `C=CC(C)(C)/C=C/c1ccc(O)cc1`, the TGI in test [1], in test [2], in [3], in test [4], in test [5] and in test [6] was over 100 µM each time. Moreover, the TGI in [7] was over 100 µM; in [8], over 100 µM; in test [9], 45.6 µM; in test [10], over 100 µM.
Regarding `CC(C)(C)c1cc(OCc2nnc3sc(Cc4ccccc4)nn23)c(Cl)cc1OCc1nnc2sc(Cc3ccccc3)nn12`, the TGI in [1] is over 100 µM; in [2] it was over 100 µM; in [3], 34.6 µM; in test [4], 46.7 µM; in test [5], 82.9 µM; in test [6], 67.2 µM. Moreover, the TGI is over 100 µM in [7], 49.8 µM in test [8], over 100 µM in [9] and 82.9 µM in test [10].
Take `O=C1Nc2cccc(Cl)c2/C1=C\c1c(-c2ccccc2)nc2n1CCS2`: the TGI in test [1] was 49.1 µM; in test [2], 36 µM; in test [3], 47.4 µM; in [4] it was 36.2 µM; in test [5] it was 45.1 µM; in test [6], 39.4 µM. The TGI is over 100 µM in [7], 45.6 µM in test [8], 36.3 µM in [9] and 36.5 µM in test [10].
Consider `O=C1C=CC(=O)c2c1ccc1c3ccccc3n(Cc3ccccc3)c21`, for which the TGI in test [1] is over 100 µM; in test [2], over 74.1 µM; in test [3] it was over 100 µM; in test [4] it was 33.1 µM; in test [5], 35.1 µM; in test [6], 44.3 µM. Besides, the TGI was 19.9 µM in [7], 67.8 µM in [8], 52.3 µM in [9] and over 56.8 µM in [10].
`c1ccc2c(Nc3ncco3)cccc2c1`: the TGI in [1], in test [2], in [3], in [4], in test [5] and in [6] was over 10 µM throughout. Also, the TGI in [7], in test [8], in test [9] and in test [10] was over 10 µM in each case.
As for `COc1ccc(-n2c(N)c(C#N)c(C#N)c2-c2ccco2)cc1`, the TGI in test [1], in test [2], in [3], in test [4], in [5] and in [6] was over 100 µM each time. The TGI in test [7], in test [8], in [9] and in test [10] was over 100 µM in each case.
For the compound `CC(=O)OCC1OC(SC2=NC(=O)CS2)C(OC(C)=O)C(OC(C)=O)C1OC(C)=O` (configuration not stated), the TGI in [1], in [2], in test [4], in [5], in [6] and in test [7] was over 100 µM in each case. Also, the TGI in test [8], in test [9] and in test [10] was over 100 µM each time.
Take `O=c1[nH]n(CCc2ccccc2CCl)c2ccc([N+](=O)[O-])cc12`: the TGI in test [1], in [2], in [3], in test [4], in test [5] and in [6] was over 100 µM throughout. In addition, the TGI in [7], in test [8], in test [9] and in test [10] was over 100 µM each time.
In the case of `O=Nc1c(-c2c(O)[nH]c3ccc(I)cc23)[nH]c2ccccc12`, the TGI in test [1] was over 30.4 µM; in test [2], 81.5 µM; in test [3], over 40.9 µM; in test [4], over 35.1 µM; in test [5], over 41.5 µM; in [6] it was over 27.6 µM. Also, the TGI in [7] is over 26.1 µM; in test [8], 4.45 µM; in test [9], over 24.5 µM; in test [10], over 100 µM.
For `CC(CCc1nc2ccccc2s1)(c1ccc(O)cc1)c1ccc(O)cc1`, the TGI stood at 38.2 µM in test [1]; 27.7 µM in test [3]; 30.2 µM in test [4]; 34.1 µM in test [5]; 36.5 µM in [6]; 32 µM in test [7]. The TGI in [8] is 29.4 µM; in [9] it was 29.4 µM; in test [10] it was 30.8 µM.
`Cc1nc2ccc(Cl)cc2c2c1CCO2`: the TGI in test [1], in test [2], in [3], in test [4], in test [5] and in test [6] was over 100 µM throughout. Further, the TGI in [7], in [8], in [9] and in test [10] was over 100 µM each time.
In the case of `Cc1ccc(-n2nncc2[Si](C)(C)C)s1`, the TGI in test [1], in [2], in [3], in test [4], in test [5] and in test [6] was over 100 µM each time. The TGI in test [7], in test [8], in test [9] and in test [10] was over 100 µM each time.
Consider `O=C1N2CCC[C@H]2CS1(=O)=O`, for which the TGI in test [1] was 47.3 µM; in test [2], over 100 µM; in test [3], 30 µM; in test [4] it was 23.1 µM; in test [5], 32.2 µM; in [6], 44.5 µM. For the same compound, the TGI in test [7] was found to be 18.5 µM; in [8], 30 µM; in [9], 27.3 µM; in test [10], 36.7 µM.
For `CCCC1=C(OC)C(=O)c2c(C)cc(Cl)nc2C1=O`, the TGI in [1] came out at 26.9 µM; in [2], 20.3 µM; in test [3], 18.6 µM; in test [4], 5.23 µM; in [5] it was 34.5 µM; in test [6], 35 µM. The TGI in [7] worked out at 8.06 µM; in test [8] it was 13.8 µM; in test [9], 5.15 µM; in test [10] it was 3.45 µM.
Regarding `O=C1C=CC(=O)c2c(O)c(N3CCOCC3)c(Cl)c(O)c21`, the TGI in test [1] is 3.85 µM; in test [2], 1 µM; in test [3] it was 2.62 µM; in test [4], 0.84 µM; in [5], 1.79 µM; in test [6] it was 3.01 µM. The TGI was determined as 0.83 µM in test [7], 1.41 µM in test [8], 0.419 µM in test [9] and 0.406 µM in test [10].
Turning to `COc1ccc(OC)c2c(C)ccnc12`, the TGI is 97.7 µM in [1]; over 68.7 µM in [2]; over 100 µM in [3]; over 100 µM in [4]; over 100 µM in [5]; over 100 µM in [6]. The TGI in test [7] was 21.8 µM; in [8], 93.5 µM; in test [9], 46.5 µM; in test [10], over 100 µM.
Regarding `O=C(Nc1ccc(-n2cc(-c3ccncc3)c(-c3ccc(O)c(Cl)c3)n2)cc1)c1ccc(Cl)c(C(F)(F)F)c1`, the GI50 in test [1] was 2.09 µM; in test [2], 0.96 µM; in test [3] it was 0.867 µM; in test [5] it was 1.72 µM; in test [6] it was 41.7 µM; in test [7], 1 µM. Further, the GI50 in test [8] is 3.38 µM; in [9] it was 1.12 µM; in [10], 2.06 µM. For the same compound, the TGI in [1] is over 50 µM; in test [2] it was 3.41 µM; in test [3], 6.76 µM; in test [5], 18.1 µM; in [6], over 50 µM; in test [7], 4.88 µM. For the same compound, the TGI in [8] stood at 14.2 µM; in [9] it was 6.88 µM; in test [10] it was 39.4 µM.
Take `Oc1ccc(Cl)cc1-c1cc(-c2ccccc2)nc(=S)[nH]1`: the TGI is over 100 µM in [1]; over 100 µM in test [2]; 39.8 µM in test [3]; 64 µM in test [4]; 68.7 µM in test [5]; over 100 µM in test [6]. For the same compound, the TGI in test [7], in test [9] and in test [10] was over 100 µM throughout.

Values taken from PubChem BioAssay (NCI).
